In patent US11149028B2, “Methods for treating melanoma using small molecules” (NOVA SOUTHEASTERN UNIVERSITY, priority 2016, dated 2021):
Entries after “also recorded” stand apart in the source; their conditions may differ. Where two headings read alike, the source gives them in different places.

Legend:
M14 cells = assay: CellTiter-Glo viability assay, M14 melanoma cells (library screening, individual compounds, time course); assay type: cell-based, human; settings: for IC50: Homo sapiens, M14
Protocol: (§1) Mixture libraries were solubilized in 3% DMSO/H2O and added to polypropylene 384 well plates (Greiner cat #781280). 1,250 CHO-K1, A549, or M14 cells were plated in 384-well plates in 5 μL of serum-free media (F12 for CHO-K1 and A549, DMEM for M14). Test compounds and gefitinib (pharmacological assay control) were prepared as 10-point, 1:3 serial dilutions starting at 300 then added to the cells (5 μL per well) using the Biomek NX^P. Plates were incubated for 72 h at 37° C., 5% CO2 and 95% RH. After incubation, 5 μL of CellTiter-Glo® (Promega cat #: G7570) were added to each well, and incubated for 15 min at room temperature. Luminescence was recorded using a Biotek Synergy H4 multimode microplate reader. Viability was expressed as a percentage relative to wells containing media only (0%) and wells containing cells treated with 1% DMSO only (100%). Three parameters were calculated on a per-plate basis: (a) the signal-to-background ratio (SB); (b) the coefficient for variation [CV; CV=(standard deviation/mean)×100)] for all compound test wells; and (c) the Z′-factor (18). The IC50 value of the pharmacological control (gefitinib, LC Laboratories #G-4408) was also calculated to ascertain the assay robustness. Time course viability assay was performed as described for library screening with luminescence measurements performed at 4, 24, 48, and 72 h.

CHO-K1 cells = assay: CellTiter-Glo viability assay, CHO-K1 healthy control cells; assay type: cell-based; settings: individual compounds
Protocol: as §1

[1] = test system: SKMEL-28 melanoma cell line; assay: Hexosaminidase viability assay, SKMEL-28; assay type: cell-based; settings: Homo sapiens, SK-MEL-28; for IC50: V600EBRAF mutation
Protocol: (§2) Hexosaminidase assay was used to study the effects of 2155-14 and 2155-18 on cell viability or cell proliferation of both B16/F-10 and SKMEL-28 cells
(§3) (Landegren, U. Measurement of cell numbers by means of the endogenous enzyme hexosaminidase. Applications to detection of lymphokines and cell surface antigens. J Immunol Methods 1984, 67, 379-388). In brief, cells were plated in 96 well plates, grown overnight and treated the next day with increasing concentrations of compounds (0-50 μM) for 48 h. After 48 h of treatment, media was discarded and cells were washed with PBS to remove residual media from wells. Hexosaminidase substrate (75 μL) (Sigma Aldrich; cat #N9376) was added to each well, incubated at 37° C. for 30 min followed by addition of 112.5 μL of developer into each well. Final absorbance was measured at λ=405 nm. Cell growth was calculated as percent viability=[([…])×100], where A and B were the absorbance of treated and control cells, respectively.

[2] = test system: B16/F10 murine metastatic melanoma; assay: Hexosaminidase viability assay, B16/F10; assay type: cell-based; settings: Mus musculus; for IC50: p53 mutation
Protocol: as §2, §3

MDA-MB-231 cell line = assay: Viability of MDA-MB-231 breast cancer cells; assay type: cell-based
HDAC2 = HDAC2 (Homo sapiens, UniProt Q92769); assay: HDAC inhibition testing; assay type: biochemical; settings: up to 100 μM
HDAC2, sequence (Q92769 whole entry): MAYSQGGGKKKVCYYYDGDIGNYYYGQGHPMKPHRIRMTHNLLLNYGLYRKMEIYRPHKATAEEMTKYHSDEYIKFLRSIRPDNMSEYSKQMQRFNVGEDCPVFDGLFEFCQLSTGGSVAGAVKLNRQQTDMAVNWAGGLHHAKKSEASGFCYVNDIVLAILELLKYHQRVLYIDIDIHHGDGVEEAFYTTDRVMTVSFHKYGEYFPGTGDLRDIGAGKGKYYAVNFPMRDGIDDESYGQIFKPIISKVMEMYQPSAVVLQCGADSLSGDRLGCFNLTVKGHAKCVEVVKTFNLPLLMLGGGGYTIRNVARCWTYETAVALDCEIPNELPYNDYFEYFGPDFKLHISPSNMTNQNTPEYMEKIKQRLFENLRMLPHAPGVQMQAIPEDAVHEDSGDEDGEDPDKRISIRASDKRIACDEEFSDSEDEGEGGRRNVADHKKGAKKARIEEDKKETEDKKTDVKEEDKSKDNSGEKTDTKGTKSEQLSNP

[3] = test system: mouse embryonic fibroblasts (MEF); assay: Viability of mouse embryonic fibroblasts; assay type: cell-based
Protocol: Cells were plated in 384-well plates in 8 μL of media. Test compounds and dabrafenib (pharmacological assay control) were prepared as 10-point, 1:3 serial dilutions starting at 300 μM, then added to the cells (4 μL per well) using the Biomek Plates were incubated for 72 h at 37° C., 5% CO2 and 95% relative humidity. After incubation, 4 μL of CellTiter-Glo® (Promega cat #: G7570) were added to each well, and incubated for 15 min at room temperature. Luminescence was recorded using a Biotek Synergy H4 multimode microplate reader. Viability was expressed as a percentage relative to wells containing media only (0%) and wells containing cells treated with DMSO only (100%). Three parameters were calculated on a per-plate basis: (a) the signal-to-background ratio (SB); (b) the coefficient for variation [CV; CV=(standard deviation/mean)×100)] for all compound test wells; and (c) the Z′-factor (18). The IC50 value of the pharmacological control (dabrafenib, LC Laboratories #G-4408) was also calculated to ascertain the assay robustness. In case of viability rescue assays, cells were pre-treated with caspase, calpain, and autophagy inhibitors for 1-3 h before addition of test compounds. Time course viability assay was done with luminescence measurements performed at 4, 24, 48, and 72 h.

[4] = test system: caspase 3/7 in WM266-4 cells; assay: Caspase 3/7 activity assay; assay type: cell-based, human; settings: 0 and 4 h
Protocol: WM266-4 and M14 cells were plated in 384-well plates in 5 μL of complete media (EMEM and RPMI-1640, respectively). 5 μL of 200 μM 2155-14 and 2155-18 were added to the cells. Plates were incubated at 37° C., 5% CO2 and 95% relative humidity for various lengths of time. After incubation, 5 μL of caspase 3/7, caspase 8, and caspase 9 Glo® reagent (Promega cat #: G7570) were added to each well, and incubated for 15 min at room temperature. Luminescence was recorded using a Biotek Synergy H4 multimode microplate reader.

[5] = test system: LC3-II and beclin-1 in WM266-4 cells; assay: Western blotting for LC3 and beclin-1, WM266-4; assay type: cell-based, human; settings: for LC3 and beclin-1, early time point: 30 min, 5-50 μM
Protocol: 1×10^6 of WM266-4 or M14 cells were seeded in 3 mL of E-MEM or RPMI-1640 medium supplemented with 10% FBS and 1% penicillin/streptomycin in 6 cm plates. […] After washing with TBST, the membranes were treated with chemilumiscent horseradish peroxidase detection reagent (Thermo Scientific, Cat #32209) and exposed to autoradiography film (Denville Scientific, Inc., Metuchen, N.J., USA, cat #E3018). ImageJ software (NIH, Bethesda, Md.) was used to quantify the intensity of proteins bands. The protein bands were normalized against loading controls (β-actin) and expressed as a fold of an untreated control.

| IC50 (M14 cells; read-out: IC50 for M14) [nM] | IC50 [1] [nM] | IC50 [2] [nM] | HDAC2 inhibition (HDAC2) | IC50 (M14 cells; individual compounds, read-out: IC50 for M14 cells) [nM] | Structure (SMILES) | activity towards M14 cells (M14 cells; individual compounds) | selectivity over CHO-K1 healthy control cells (CHO-K1 cells) | selectivity against MDA-MB-231 cell line (MDA-MB-231 cell line) | toxicity to mouse embryonic fibroblasts [3] | caspase 3/7 activity vs untreated control [4] | LC3 and beclin-1, early time point [5] | LC3-II level, WM266-4 ([5]; 24 h, 5-200 μM) | inhibition of M14 cell viability at highest concentration (M14 cells; 100 μM) | IC50 (CHO-K1 cells; Cricetulus griseus, CHO-K1) [nM] | cytotoxicity at 10 µM ([1]; starting at 10 μM, read-out: inhibition of SKMEL-28 viability) [%] | cytotoxicity at 10 µM ([2]; starting at 10 μM, read-out: inhibition of B16/F10 viability) [%] | beclin-1 level, WM266-4 ([5]; 24 h, 5-200 μM) |
| --- | --- | --- | --- | --- | --- | --- | --- | --- | --- | --- | --- | --- | --- | --- | --- | --- | --- |
| 745 ± 60 | 890 ± 70 | 1150 | lack of HDAC inhibition |  | O=C1NC[C@H](Cc2ccccc2)N(C[C@@H]2CCCN2C[C@H](Cc2ccccc2)N2C[C@H](Cc3ccc(O)cc3)N(CCC34CC5CC(CC(C5)C3)C4)C(=O)C2=O)C1=O [Compound 2155-18, (S)-4-(2-(adamantan-1yl)ethyl)-1-((S)-1-((S)-2-(((S)-6-benzyl-2,3-dioxopiperazin-1-yl)methyl)pyrrolidin-1-yl)-3-phenylpropan-2-yl)-5-(4-hydroxybenzyl)piperazine-2,3-dione] | improved activity | maintaining selectivity for CHO-K1 cells | selective | not toxic | not statistically different from untreated control | No statistical significance between untreated control and test conditions | dose dependent inhibitory effect on basal autophagy |  |  |  |  |  |
|  | 563 ± 40 | 2700 ± 200 | lack of HDAC inhibition | 3600 ± 300 | O=C1NC[C@H](Cc2ccccc2)N(C[C@@H]2CCCN2C[C@@H](CC2CCCCC2)N2C[C@H](Cc3ccc(O)cc3)N(CCc3ccccc3)C(=O)C2=O)C1=O [Compound 2155-14, (S)-1((R)-1((S)-2-(((S)-6-benzyl-2,3-dioxopiperazin-1-yl)methyl)pyrrolidin-1-yl)-3-cyclohexylpropan-2-yl)-5-(4-hydroxybenzyl)-4-phenethylpiperazine-2,3-dione] |  |  | selective | not toxic | not statistically different from untreated control | autophagy potentiation as compared to the untreated control was not observed; also recorded: No statistical significance between untreated control and test conditions | Dose dependent increase | not able to fully inhibit | > 100000 | ~100 | ~100 | Dose dependent increase |
